In brackets after ≈: the same amount, converted by molar mass. Entries after “also recorded” stand apart in the source; their conditions may differ.
Assays:
[1] = system: interleukin 10 (IL-10); experiment: IL-10 in supernatants of HMO-pretreated peripheral blood mononuclear cells with or without RSV (Example 39); type: cell-based, human; conditions: in the presence or absence of RSV
Method: Specifically, either 3′SL or 6′SL is added, at concentrations of 0.1 mg/mL, 0.2 mg/mL, or 0.5 mg/mL to fresh peripheral blood mononuclear cells and incubated at 37° C. in 5% CO2 to pretreat the cells for approximately 24 hours. LNnT is added, at concentrations of 0.1 mg/mL, 0.2 mg/mL, or 1 mg/mL to fresh peripheral blood mononuclear cells and incubated at 37° C. in 5% CO2 to pretreat the cells for approximately 24 hours. Lactose is included as a carbohydrate control. Matched endotoxin unit concentration controls are included to allow differentiation of ingredient effects from inherent low levels of endotoxin. Some variables are then incubated with RSV at a multiplicity of infection (MOI) of 0.1 for approximately 1 hour at 37° C. in 5% in CO2. Uninfected control variables are incubated with medium for approximately 1 hour at 37° C. in 5% CO2. […]
Cytokines are measured in supernatants for each variable at 24 and 48 hours to assess the effects of HMOs on the early immune response to RSV. Cytokines are measured using custom Bio-Plex Human cytokine kits from Bio-Rad. […] A positive correlation exists between RSV clinical disease severity in children (as measured by: length of hospital stay, fever, and number of days supplemental O2 is required) and serum IP-10. […]

[2] = system: respiratory syncytial virus (RSV); experiment: in vitro inhibition of viral infectivity, co-incubation of virus with HMO (Example 36); type: cell-based; conditions: virus dose about 500-1,000 units/mL; HMOs added at 1 mg/mL or 10 mg/mL
Method: In this Example, the effect of purified human milk oligosaccharides (HMO) on in vitro inhibition of viral infectivity is analyzed.
Samples are prepared by co-incubation of a uniform virus dose of from about 500 units/mL to about 1,000 units/mL of one of three respiratory viruses: (1) respiratory syncytial virus (RSV); (2) human parainfluenza virus (HPIV3); or (3) H1N1 influenza virus with one of the following HMOs: (1) 3′-sialyllactose (3′SL); (2) 6′-sialyllactose (6′SL); (3) 3′-fucosyllactose (3′FL); (4) 2′-fucosyllactose (2′FL); (5) lacto-N-neotetraose (LNnT); or (6) sialic acid (SA). The HMOs are added at concentrations of either 1 mg/mL or 10 mg/mL.

[3] = system: interferon-inducible protein 10 (IP-10); experiment: IP-10 in supernatants of HMO-pretreated, RSV-infected peripheral blood mononuclear cells (Example 39); type: cell-based, human; conditions: for IP-10 in virus-infected variables: 24 hour pretreatment, both donors, 24 and 48 hours post-infection; for IP-10 level reached compared with uninfected controls / effectiveness at dampening virus-induced inflammation (decrease in IP-10) compared with 3′SL: RSV-infected PBMCs; for reducing inflammation caused by RSV: pretreatment for 24 hours
Method: (§1) Specifically, either 3′SL or 6′SL is added, at concentrations of 0.1 mg/mL, 0.2 mg/mL, or 0.5 mg/mL to fresh peripheral blood mononuclear cells and incubated at 37° C. in 5% CO2 to pretreat the cells for approximately 24 hours. LNnT is added, at concentrations of 0.1 mg/mL, 0.2 mg/mL, or 1 mg/mL to fresh peripheral blood mononuclear cells and incubated at 37° C. in 5% CO2 to pretreat the cells for approximately 24 hours. Lactose is included as a carbohydrate control. Matched endotoxin unit concentration controls are included to allow differentiation of ingredient effects from inherent low levels of endotoxin. Some variables are then incubated with RSV at a multiplicity of infection (MOI) of 0.1 for approximately 1 hour at 37° C. in 5% in CO2. Uninfected control variables are incubated with medium for approximately 1 hour at 37° C. in 5% CO2. After approximately one hour, fresh medium alone, or fresh medium containing the appropriate concentration of 3′SL, 6′SL, LNnT, lactose, or endotoxin is added to the appropriate tubes and the cells are incubated for 48 hours at 37° C. in 5% CO2. Supernatants are collected at 24 and 48 hours post-infection.
(§2) Cytokines are measured in supernatants for each variable at 24 and 48 hours to assess the effects of HMOs on the early immune response to RSV. Cytokines are measured using custom Bio-Plex Human cytokine kits from Bio-Rad. Results for interferon-inducible protein 10 (IP-10, also known as CXCL 10) are shown in FIGS. 3 and 4 for 3′SL and 6′SL, and in FIGS. 5 and 6 for LNnT. IP-10 is a CXC chemokine that attracts, binds to and activates the CXCR3 receptor on natural killer cells and memory T cells. IP-10 is expressed by monocytes and a number of other cells, and is induced by interferon. A positive correlation exists between RSV clinical disease severity in children (as measured by: length of hospital stay, fever, and number of days supplemental O2 is required) and serum IP-10. Therefore, a decrease in IP-10 signals a decrease in severity of RSV disease experienced.

[4] = system: H1N1 influenza virus; experiment: microbe, parasite or virus in culture; type: cell-based
[5] = system: monocyte-derived cytokines; experiment: monocyte-derived cytokines in supernatants of HMO-treated peripheral blood mononuclear cells (Example 39); type: cell-based, human
Method: as §1, §2

[6] = system: Interleukin 8 (IL-8); experiment: IL-8 in supernatants of PBMCs treated with 3′SL and/or 6′SL with or without RSV (Example 40); type: cell-based, human; conditions: in the presence of RSV (MOI 0.1); individual 0.1-0.5 mg/mL, combinations 0.2-1.0 mg/mL total; FIG. 11
Method: In this example, the combination of 3′SL and 6′SL to reduce the inflammatory cytokine IL-8 in vitro is analyzed.
Specifically, 3′SL and 6′SL are added individually at concentrations of 0.1 mg/mL, 0.2 mg/mL, or 0.5 mg/mL or in combination (Combo 1=1 part 3′SL to 1 part 6′SL; Combo 2=1 part 3′SL to 2 parts 6′SL), at total concentrations of 0.2 mg/mL, 0.4 mg/mL, or 1.0 mg/mL to fresh peripheral blood mononuclear cells (PBMCs) and incubated at 37° C. in 5% CO2 to pretreat the cells for approximately 24 hours. Lactose is included as a carbohydrate control. Matched endotoxin unit concentration controls are included to allow differentiation of ingredient effects from inherent low levels of endotoxin. After approximately 24 hours, some variables are then incubated with RSV at a multiplicity of infection (MOI) of 0.1 for approximately 1 hour at 37° C. in 5% in CO2. Uninfected control variables are incubated with medium for approximately 1 hour at 37° C. in 5% CO2. […] Cytokines are measured in supernatants for each variable at 24 and 48 hours to assess the effects of the 3′SL and/or the 6′SL on the early immune response to RSV. Cytokines are measured using custom Bio-Plex Human cytokine kits from Bio-Rad. […]

[7] = system: human parainfluenza virus (HPIV3); experiment: microbe, parasite or virus in culture; type: cell-based; conditions: virus dose about 500-1,000 units/mL, HMOs added at 1 mg/mL or 10 mg/mL
[8] = system: H1N1 influenza virus; experiment: organism not typed; type: cell-based; conditions: HMO at 10 mg/mL, MDCK cells, FIG. 1
[9] = virus dose about 500-1,000 units/mL, HMOs added at 1 mg/mL or 10 mg/mL
[10] = in the presence or absence of the virus

Compound: CC(=O)N[C@H]1[C@H](O[C@H]2[C@@H](O)[C@@H](CO)O[C@@H](O[C@H]3[C@H](O)[C@@H](O)C(O)O[C@@H]3CO)[C@@H]2O)O[C@H](CO)[C@@H](O[C@@H]2O[C@H](CO)[C@H](O)[C@H](O)[C@H]2O)[C@@H]1O (mixture of isomers) [LNnT, lacto-N-neotetraose]
- IL-10 concentration [1]: increases IL-10 concentration in a dose-dependent manner
- IC50 (mg HMO/mL) RSV [2]: >10 mg HMO/mL
- IP-10 in virus-infected variables ([3]; RSV MOI 0.1): clearly downregulates IP-10
- IP-10 level reached compared with uninfected controls [3]: reduce IP-10 to levels found in uninfected controls
- effectiveness at dampening virus-induced inflammation (decrease in IP-10) compared with 3′SL [3]: more effective than 3′SL
- reducing inflammation caused by RSV [3]: effective in reducing inflammation caused by RSV
- IC50 (mg HMO/mL) H1N1 Influenza [4, 9]: >10 mg HMO/mL
- immunomodulation: induces and/or modifies production of monocyte-derived cytokines [5, 10]: immunomodulatory

Compound: CC(=O)N[C@H]1[C@H]([C@H](O)[C@H](O)CO)O[C@@](O[C@H]2[C@@H](O)[C@@H](CO)O[C@@H](O[C@H]3[C@H](O)[C@@H](O)C(O)O[C@@H]3CO)[C@@H]2O)(C(=O)O)C[C@@H]1O (some centres unmarked) [3′SL, 3′-sialyllactose]
- IC50 (mg HMO/mL) RSV [2]: >10 mg HMO/mL
- IL-8 concentration with increasing HMO concentration [6]: increase IL-8
- RSV-induced IP-10, Donor B ([3]; RSV MOI 0.1, 0.1-0.5 mg/mL, Donor B): not effective
- RSV-induced IP-10, Donor E ([3]; RSV MOI 0.1, 0.1-0.5 mg/mL, Donor E): downregulates RSV-induced IP-10
- IP-10 in virus-infected variables ([3]; RSV MOI 0.1): dampen RSV-induced IP-10
- reducing inflammation caused by RSV [3]: effective in reducing inflammation caused by RSV
- anti-viral activity against H1N1 influenza virus ([4]; HMO at 1 mg/mL): inhibited
- IC50 (mg HMO/mL) H1N1 Influenza [4, 9]: ~5 mg HMO/mL
- immunomodulation: induces and/or modifies production of monocyte-derived cytokines [5, 10]: immunomodulatory
- IC50 (mg HMO/mL) HPIV3 [7]: >10 mg HMO/mL

Compound: CC(=O)N[C@H]1[C@H]([C@H](O)[C@H](O)CO)O[C@@](OC[C@H]2O[C@@H](O[C@H]3[C@H](O)[C@@H](O)[C@H](O)O[C@@H]3CO)[C@H](O)[C@@H](O)[C@H]2O)(C(=O)O)C[C@@H]1O [6′SL, 6′-sialyllactose]
- IL-10 concentration [1]: increases interleukin 10 (IL-10) concentration in a dose-dependent manner
- IC50 (mg HMO/mL) RSV [2]: >10 mg HMO/mL
- IL-8 concentration with increasing HMO concentration [6]: increase IL-8
- IP-10 in virus-infected variables ([3]; RSV MOI 0.1): clearly downregulates IP-10
- IP-10 level reached compared with uninfected controls [3]: reduce IP-10 to levels found in uninfected controls
- effectiveness at dampening virus-induced inflammation (decrease in IP-10) compared with 3′SL [3]: more effective at downregulation of IP-10; also recorded: more effective than 3′SL
- reducing inflammation caused by RSV [3]: effective in reducing inflammation caused by RSV
- IC50 (mg HMO/mL) H1N1 Influenza [4, 9]: ~10 mg HMO/mL
- inhibition of virus infectivity [8]: approximately 60%
- immunomodulation: induces and/or modifies production of monocyte-derived cytokines ([5]; in the absence of the virus): immunomodulatory
- IC50 (mg HMO/mL) HPIV3 [7]: >10 mg HMO/mL

Compound: CC(=O)N[C@H]1[C@H]([C@H](O)[C@H](O)CO)OC(O)(C(=O)O)C[C@@H]1O (some centres unmarked) [SA, sialic acid]
- IC50 ([4]; Influenza A virus, H1N1, virus dose about 500-1,000 units/mL, HMOs added at 1 mg/mL or 10 mg/mL, read-out: IC50 (mg HMO/mL) H1N1 Influenza): ~5000 µg/mL (≈ 16.2 mM)
- inhibition at 10000 µg/mL ([8]; read-out: inhibition of virus infectivity): > 90%
- IC50 ([7]; Human respirovirus 3, read-out: IC50 (mg HMO/mL) HPIV3): ~2000 µg/mL (≈ 6.47 mM)
